How the values were obtained:
A 549 = assay: Proliferation test (formazan dye reduction), 72 h incubation; type: cell-based; conditions: A 549 cells
From the text: (§1) Proliferationstest (Methotrexat-Reduktion)
(§2) Kontrollexperimente erhalten anstelle der Testsubstanz lediglich Wachstumsmedium. […] Flow bei einer Wellenlänge von 492 nm gemessen.
(§3) Für wiederholte Untersuchungen beträgt der Variationskoeffizient weniger als 15 %. Tabelle 1

HT 29 = assay: as above; type: cell-based; conditions: HT 29 cells
From the text: as §1, §2, §3

L1210 = assay: as above; type: cell-based; conditions: L1210 cells
From the text: as §1, §2, §3

L1210 Leukämie = assay: In vivo efficacy on L1210 leukaemia in mice (median survival time, T/C); conditions: for optimale Dosis: dose giving the greatest antitumoral effect
Protocol: Aszites Flüssigkeit wird 7 Tage nach der Tumor-Implantation unter sterilen Bedingungen aus DBA2 Mäusen entnommen (weiblich, 18 bis 20 g). Die Aszites Flüssigkeit wird dreimal mit PBS (phosphate buffered saline) gewaschen, gezählt und anschließend in PBS verdünnt bis zu einer Endkonzentration von 10⁶ Zellen pro 0,2 ml.
10⁶ Zellen in 0,2 ml PBS werden DBA2 Mäusen (weiblich, 18 bis 20 g) intraperitoneal appliziert. Dieser Transfer wird einmal wöchentlich wiederholt.
10⁵ Zellen der Aszites Flüssigkeit in 0,2 ml PBS werden BDF1 Mäusen (weiblich, 18 bis 20 g) intraperitoneal appliziert. 6 Tiere werden für jede Substanzkonzentration sowie für die Kontrolle eingesetzt.
a) Die Tiere werden an Tag 1 und Tag 5 nach der Tumorzellenimplantation gewogen. Gewichtsverlust von mehr als 20 % an Tag 5 wird als Indikator eines toxischen Substanzeffektes verwendet.
b) Am Ende des Experiments (Tod aller Tiere oder Erreichen von Tag 60) wird die mediane Überlebenszeit der Behandlungsgruppen bestimmt, sofern diese 65 % überlebende Tiere am Tag 5 enthielten. Die Ermittlung der medianen Überlebenszeit erfolgt entsprechend der Formel: [formula]
In dieser Formel bedeutet X den frühesten Tag, an dem die Zahl der überlebenden Tiere N/2 und Y den frühesten Tag, an dem die Zahl der überlebenden Tiere (N/2)-1 ist. In dem Fall, daß N eine ungerade Zahl ist, entspricht die mediane Überlebenszeit dem Zeitpunkt X.
Die mediane Überlebenszeit wird ausschließlich für im Verlauf des Experiments sterbende Tiere bestimmt. Geheilte Tiere (long time survivors, LTS) werden von der Bestimmung der medianen Überlebenszeit ausgeschlossen und getrennt aufgeführt.
Aus der medianen Überlebenszeit der behandelten Gruppen (MSTTumor) und Kontrollgruppen (MSTControl) wird der antitumorale Effekt-Tumor/control (T/C) entsprechend der Formel [formula] bestimmt. T/C Werte von mehr als 125 % werden als Indikator einer signifikanten antitumoralen Wirksamkeit der Testverbindung angesehen. Die Dosis, die jeweils den größten antitumoralen Effekt bewirkt (optimale Dosierung) ist in Tab. 2 aufgeführt. Noch lebende Tiere an Tag 60 werden als geheilt betrachtet (LTS). Ergebnisse: s. Tabelle 2

[1] = free methotrexate; the 330 mg/kg dose is said to lie above it; cited from earlier work
[2] = L1210, 3xip/ip/Q3D, at optimal dose

SMILES: CN(Cc1cnc2nc(N)nc(N)c2n1)c1ccc(C(=O)N[C@@H](CCC(=O)O)C(=O)O)cc1 [Methotrexat, N-[4-[[(2,4-diamino-6-pteridinyl)-methyl]methylamino]benzoyl]-glutaminsäure]
- IC₅₀ (A 549): 0,01 µg/ml
- IC₅₀ (HT 29): 0,008 µg/ml
- IC₅₀ (L1210): 0,01 µg/ml
- Wirkung (T/C %) (L1210 Leukämie; L1210, 1xip/ip, at optimal dose): 123%
- optimale Dosis (L1210 Leukämie; L1210, 1xip/ip): 100 mg polymerfixiertes Produkt/kg Körpergewicht
- Wirkung (T/C %) (L1210 Leukämie; [2]): 378%
- toxisch (L1210 Leukämie; [2]): 1
- Heilungen (L1210 Leukämie; L1210, 3xip/ip/Q3D, at optimal dose, animals alive at day 60 (LTS)): 5/6
- optimale Dosis (L1210 Leukämie; L1210, 3xip/ip/Q3D): 80 mg polymerfixiertes Produkt/kg Körpergewicht
- Lebensverlängerungen gegenüber unbehandelten Kontrollen (L1210 Leukämie; mice with L1210 leukaemia, single i.p. application of 60 mg/kg body weight methotrexate equivalent): nicht wirksam
- LD₅₀ [1]: < 330 mg/kg

— patent EP0383170A2, “Methotrexate linked to polymers, process for their preparation, and use” (HOECHST AKTIENGESELLSCHAFT, priority 1989, dated 1990)
